According to paper PMC5140066, “Electrophysiological Characteristics of Human iPSC-Derived Cardiomyocytes for the Assessment of Drug-Induced Proarrhythmic Potential” (PLoS ONE, 2016):

What was measured:
[1] = system: human ventricular myocytes; parameters: method as in PMID 9709405; settings: independent of the underlying pacing rate; cited from earlier work
[2] = system: guinea pig ventricular myocytes; parameters: method as in PMID 9709405; settings: independent of the underlying pacing rate; cited from earlier work
[3] = system: dogs with subacute myocardial infarction; parameters: method as in PMID 11005588; settings: cited from earlier work
[4] = system: human induced pluripotent stem cell-derived cardiomyocytes (hiPSC-CMs); assay: Field potential recording of hiPSC-CM sheets on multi-electrode array (MEA); type: cell-based; settings: for Effect on FPD: cumulative application; for Use (rate) dependence of FPD prolongation: from FPD-ISI plots
Method: The cells were thawed and suspended in iCell Cardiomyocytes Plating Medium (Cellular Dynamics International), then plated (approximately 2 × 10^6 cells/well) in 6-well tissue-culture plates coated with 0.1% gelatin. After two days of incubation at 37°C under an atmosphere of 5% CO2, the plating medium was replaced with iCell Cardiomyocytes Maintenance Medium (Cellular Dynamics International); this medium was used as the culture medium throughout the experiments and was replaced every 1 to 3 days. The cells were cultured for 7 to 14 days in a 5% CO2 incubator at 37°C and then re-plated onto MEA probes (MED-P515A or MED-PG515A; Alpha Med Scientific, Osaka, Japan).
The recording areas of the MEA probes were coated with fibronectin (Becton Dickinson, Franklin Lakes, NJ, USA; Invitrogen, Carlsbad, CA, USA; Corning, Corning, NY, USA). Fibronectin was dissolved in distilled water or Dulbecco's phosphate-buffered saline (PBS) [−] to give 50 μg/mL, the recording areas were covered with 2 μL fibronectin solution, and then the MEA probes were incubated at 37°C for at least 1 h. […] After discarding the fibronectin solution from the MEA probes without complete drying, the cell suspension at a density of 3.0 × 10^4 cells in a 2 μL droplet was re-plated onto the fibronectin-coated area of each MEA probe and incubated for 1 to 3 h in a 5% CO2 incubator at 37°C. Each well of the MEA probes was then filled with maintenance medium at a volume of 1 mL/well. The medium was replaced every 1 to 3 days thereafter, and the cells were cultured for 5 to 14 days to obtain high density cardiomyocyte-sheets with spontaneous and synchronous electrical activities.
Prior to recording FPs, the cardiomyocyte-sheets were equilibrated for at least 30 min in a 5% CO2 incubator at 37°C in fresh culture medium. The MEA probes were then transferred to a FP measurement apparatus (MED64 system; Alpha Med Scientific, Osaka, Japan) and covered with a lid through which humidified gas containing 5% CO2 was provided. […] Analogue FP signals from the spontaneously beating cardiomyocyte-sheets were acquired through a 0.1-Hz high-pass filter and a 5-kHz low-pass filter, and digitized at 20 kHz using the MED64 system. […] Compound stock solutions were prepared using DMSO at 1000-fold the target concentrations of the test compounds. The stock solutions were diluted with the maintenance medium to obtain the appropriate compound concentrations, then 1/10th to 1/50th the volume of the medium in the wells was exchanged with an equal volume of the compound-containing medium. The compounds were applied in a cumulative manner to the wells. The concentration of DMSO was 0.5–0.6% at the highest concentration of the test compounds. […] FPD (ms) and ISI (ms) were analyzed using Mobius QT software designed by WitWerx (Santa Cruz, CA, USA) (Fig 1b).
Baseline FP waveforms that met the following criteria were used for analysis. […] In the FP signals, EAD and TA were defined as slow negative spikes and a sharp deflection with an amplitude ≥ ± 100 μV, respectively (Fig 1c). EAD, TA or both usually appear during or after the second positive deflection. ISI, FPD and FPDcF were not calculated for concentrations in which EAD or TA were observed.
As previously mentioned, total 96 data equally from 4 facilities each were used for the analysis (24 data per facility). […] The root mean squared prediction error (RMSE) was used to show the level of accuracy of the equation predicted for the observed data (Fig 2). With categorical data analysis of FPD, inter-facilities differences were investigated with Kruskal-Wallis test (Fig 4).

[5] = cisapride 3 nM, all 4 facilities, n=24
[6] = cisapride 3 nM, facility A, n=6
[7] = cisapride 3 nM, facility B, n=6
[8] = cisapride 3 nM, facility C, n=6
[9] = cisapride 3 nM, facility D, n=6
[10] = cisapride 10 nM, all 4 facilities, n=24
[11] = cisapride 10 nM, all 4 facilities, n=24, listed as cisapride
[12] = cisapride 10 nM, facility A, n=6
[13] = cisapride 10 nM, facility B, n=6
[14] = cisapride 10 nM, facility C, n=6
[15] = cisapride 10 nM, facility D, n=6
[16] = cisapride 30 nM, all 4 facilities, n=24
[17] = cisapride 30 nM, facility A, n=6
[18] = cisapride 30 nM, facility B, n=6
[19] = cisapride 30 nM, facility C, n=6
[20] = cisapride 30 nM, facility D, n=6
[21] = cisapride 100 nM, all 4 facilities, n=24
[22] = cisapride 100 nM, facility D, n=6

CCS(=O)(=O)N(C)[C@H]1c2cc(C#N)ccc2OC(C)(C)[C@@H]1O (racemic) [Chromanol 293B]
Prolongation of APD90 [1]: about 30% | Prolongation of APD90 [2]: about 30% | Effect on effective refractory periods [3]: prolonged effective refractory periods in a rate-dependent manner | EADs and/or TAs ([4]; at concentrations up to 30 μM): not observed | Slope factor of FPD-ISI regression, % change ([4]; chromanol 293B 1 μM): 0.9162 | Slope factor of FPD-ISI regression, % change ([4]; chromanol 293B 30 μM): 0.9066 | Slope factor of FPD-ISI regression, absolute FPD (ms) ([4]; chromanol 293B 30 μM (sham 0.1674)): 0.4182 | Effect on FPD [4]: prolonged FPD in a concentration-dependent manner | Use (rate) dependence of FPD prolongation [4]: prolonged FPD in a rate-independent manner

Cc1cccc(CCN2CCC(C(=O)c3ccc(NS(C)(=O)=O)cc3)CC2)n1 [E-4031]
Slope factor of FPD-ISI regression, % change ([4]; E-4031 1 nM): 0.9347 | Slope factor of FPD-ISI regression, % change ([4]; E-4031 10 nM): 1.8977 | Slope factor of FPD-ISI regression, absolute FPD (ms) ([4]; E-4031 10 nM (sham 0.1653)): 0.3328 | Use (rate) dependence of FPD prolongation [4]: induced FPD prolongation in a reverse use-dependent manner

COc1cc(N)c(Cl)cc1C(=O)NC1CCN(CCCOc2ccc(F)cc2)CC1OC (stereo not drawn) [Cisapride, cisapride]
Delta FPDcF ([4]; categorical analysis, Fridericia correction, S5 Table): increased in a concentration-dependent manner | Delta FPD ([4]; categorical analysis, S4 Table): increased in a concentration-dependent manner | Slope factor of FPD-ISI regression, % change ([4]; cisapride 3 nM): 0.6124 | Preparations in absolute FPD category > 450 ms [4, 5]: 21%(5/24) | Preparations in absolute FPD category > 480 ms [4, 5]: 13%(3/24) | Preparations in absolute FPD category > 500 ms [4, 5]: 17%(4/24) | Preparations in absolute FPD category ≤ 450 ms [4, 5]: 50%(12/24) | Preparations in absolute FPD category > 450 ms [4, 6]: 17%(1/6) | Preparations in absolute FPD category > 480 ms [4, 6]: 17%(1/6) | Preparations in absolute FPD category > 500 ms [4, 6]: 50% (3/6) | Preparations in absolute FPD category ≤ 450 ms [4, 6]: 17%(1/6) | Preparations in absolute FPD category > 450 ms [4, 7]: 17%(1/6) | Preparations in absolute FPD category > 480 ms [4, 7]: 17%(1/6) | Preparations in absolute FPD category > 500 ms [4, 7]: 0% (0/6) | Preparations in absolute FPD category ≤ 450 ms [4, 7]: 67%(4/6) | Preparations in absolute FPD category > 450 ms [4, 8]: 17%(1/6) | Preparations in absolute FPD category > 480 ms [4, 8]: 17%(1/6) | Preparations in absolute FPD category > 500 ms [4, 8]: 17%(1/6) | Preparations in absolute FPD category ≤ 450 ms [4, 8]: 50% (3/6) | Preparations in absolute FPD category > 450 ms [4, 9]: 33%(2/6) | Preparations in absolute FPD category > 480 ms [4, 9]: 0% (0/6) | Preparations in absolute FPD category > 500 ms [4, 9]: 0% (0/6) | Preparations in absolute FPD category ≤ 450 ms [4, 9]: 67%(4/6) | Preparations in absolute FPD category > 450 ms [4, 10]: 38%(9/24) | Preparations in absolute FPD category > 480 ms [4, 10]: 17%(4/24) | Preparations in absolute FPD category > 500 ms [4, 10]: 29%(7/24) | Preparations in absolute FPD category ≤ 450 ms [4, 10]: 17% (4/24) | Preparations in absolute FPD category > 500 ms [4, 11]: 29% | Preparations with EAD/TA [4, 11]: no EAD/TAs were observed | Preparations in absolute FPD category > 450 ms [4, 12]: 0% (0/6) | Preparations in absolute FPD category > 480 ms [4, 12]: 50% (3/6) | Preparations in absolute FPD category > 500 ms [4, 12]: 50% (3/6) | Preparations in absolute FPD category ≤ 450 ms [4, 12]: 0% (0/6) | Preparations in absolute FPD category > 450 ms [4, 13]: 33%(2/6) | Preparations in absolute FPD category > 480 ms [4, 13]: 0% (0/6) | Preparations in absolute FPD category > 500 ms [4, 13]: 17%(1/6) | Preparations in absolute FPD category ≤ 450 ms [4, 13]: 50% (3/6) | Preparations in absolute FPD category > 450 ms [4, 14]: 50% (3/6) | Preparations in absolute FPD category > 480 ms [4, 14]: 0% (0/6) | Preparations in absolute FPD category > 500 ms [4, 14]: 33%(2/6) | Preparations in absolute FPD category ≤ 450 ms [4, 14]: 17%(1/6) | Preparations in absolute FPD category > 450 ms [4, 15]: 67%(4/6) | Preparations in absolute FPD category > 480 ms [4, 15]: 17%(1/6) | Preparations in absolute FPD category > 500 ms [4, 15]: 17%(1/6) | Preparations in absolute FPD category ≤ 450 ms [4, 15]: 0% (0/6) | Slope factor of FPD-ISI regression, % change ([4]; cisapride 30 nM): 1.2274 | Slope factor of FPD-ISI regression, absolute FPD (ms) ([4]; cisapride 30 nM (sham 0.1204)): 0.1644 | Preparations in absolute FPD category > 450 ms [4, 16]: 4% (1/24) | Preparations in absolute FPD category > 480 ms [4, 16]: 13%(3/24) | Preparations in absolute FPD category > 500 ms [4, 16]: 71%(17/24) | Preparations in absolute FPD category ≤ 450 ms [4, 16]: 8% (2/24) | Preparations with EAD/TA [4, 16]: 4%(1/24) | Preparations in absolute FPD category > 500 ms ([4]; cisapride 30 nM, all 4 facilities, n=24, listed as cisapride): 71% | Number of preparations that showed EAD/TAs ([4]; cisapride 30 nM, all 4 facilities, of 24): 1 preparation | Preparations in absolute FPD category > 450 ms [4, 17]: 0% (0/6) | Preparations in absolute FPD category > 480 ms [4, 17]: 0% (0/6) | Preparations in absolute FPD category > 500 ms [4, 17]: 83%(5/6) | Preparations in absolute FPD category ≤ 450 ms [4, 17]: 0% (0/6) | Preparations with EAD/TA [4, 17]: 17%(1/6) | Preparations in absolute FPD category > 450 ms [4, 18]: 17%(1/6) | Preparations in absolute FPD category > 480 ms [4, 18]: 0% (0/6) | Preparations in absolute FPD category > 500 ms [4, 18]: 50% (3/6) | Preparations in absolute FPD category ≤ 450 ms [4, 18]: 33%(2/6) | Preparations in absolute FPD category > 450 ms [4, 19]: 0% (0/6) | Preparations in absolute FPD category > 480 ms [4, 19]: 33%(2/6) | Preparations in absolute FPD category > 500 ms [4, 19]: 67%(4/6) | Preparations in absolute FPD category ≤ 450 ms [4, 19]: 0% (0/6) | Preparations in absolute FPD category > 450 ms [4, 20]: 0% (0/6) | Preparations in absolute FPD category > 480 ms [4, 20]: 17%(1/6) | Preparations in absolute FPD category > 500 ms [4, 20]: 83%(5/6) | Preparations in absolute FPD category ≤ 450 ms [4, 20]: 0% (0/6) | Preparations in absolute FPD category > 450 ms [4, 21]: 0% (0/24) | Preparations in absolute FPD category > 480 ms [4, 21]: 0% (0/24) | Preparations in absolute FPD category > 500 ms [4, 21]: 8%(2/24) | Preparations in absolute FPD category ≤ 450 ms [4, 21]: 0% (0/24) | Preparations with EAD/TA [4, 21]: 92%(22/24) | Preparations with EAD/TA ([4]; cisapride 100 nM, all 4 facilities, n=24, listed as cisapride): 92% | Preparations with EAD/TA ([4]; cisapride 100 nM, facility A, n=6): 100%(6/6) | Preparations with EAD/TA ([4]; cisapride 100 nM, facility B, n=6): 100%(6/6) | Preparations with EAD/TA ([4]; cisapride 100 nM, facility C, n=6): 100%(6/6) | Preparations in absolute FPD category > 450 ms [4, 22]: 0% (0/6) | Preparations in absolute FPD category > 480 ms [4, 22]: 0% (0/6) | Preparations in absolute FPD category > 500 ms [4, 22]: 33%(2/6) | Preparations in absolute FPD category ≤ 450 ms [4, 22]: 0% (0/6) | Preparations with EAD/TA [4, 22]: 67%(4/6) | Preparations with EAD/TA ([4]; cisapride 300 nM, all 4 facilities, n=24): 100%(24/24) | Preparations with EAD/TA ([4]; cisapride 300 nM, facility D, n=6): 100%(6/6) | Effect on FPD [4]: prolonged FPD in a concentration-dependent manner | Use (rate) dependence of FPD prolongation [4]: induced FPD prolongation in a reverse use-dependent manner
